Measurements as given in article PMC5218480 (PLoS ONE, 2017).

System: MV-4-11 cells
Test: Gene expression microarray analysis (Affymetrix PrimeView) and GSEA
Format: cell-based, human
Set-up: RFU PODN (11730768_x_at) / Fold change /veh PODN (11730768_x_at) / RFU LINC00158 (11744669_a_at) / Fold change /veh LINC00158 (11744669_a_at) / RFU DUSP10 (11751237_a_at) / Fold change /veh DUSP10 (11751237_a_at) / RFU ID3 (11757404_x_at) / Fold change /veh ID3 (11757404_x_at) / RFU PLEKHG5 (11737974_s_at) / Fold change /veh PLEKHG5 (11737974_s_at) / RFU LRRC4B (11730491_at) / Fold change /veh LRRC4B (11730491_at) / RFU GIMAP4 (11747438_a_at) / Fold change /veh GIMAP4 (11747438_a_at) / RFU KRT8 (11758183_x_at) / Fold change /veh KRT8 (11758183_x_at) / RFU CNN1 (11734310_a_at) / Fold change /veh CNN1 (11734310_a_at) / RFU VPS37D (11726825_at) / Fold change /veh VPS37D (11726825_at) / RFU C10orf10 (11716522_x_at) / Fold change /veh C10orf10 (11716522_x_at) / RFU KIR2DL2 /// KIR2DL4 /// KIR2DL5A /// KIR2DL5B /// KIR2DS1 /// KIR2DS2 /// KIR2DS3 /// KIR2DS4 /// KIR3DL3 /// KIR3DL3 /// KIR3DS1 (11738374_at) / Fold change /veh KIR2DL2 /// KIR2DL4 /// KIR2DL5A /// KIR2DL5B /// KIR2DS1 /// KIR2DS2 /// KIR2DS3 /// KIR2DS4 /// KIR3DL3 /// KIR3DL3 /// KIR3DS1 (11738374_at) / RFU C1QL1 (11718748_at) / Fold change /veh C1QL1 (11718748_at) / RFU TMPRSS4 (11747572_a_at) / Fold change /veh TMPRSS4 (11747572_a_at) / RFU HAMP (11756126_x_at) / Fold change /veh HAMP (11756126_x_at) / RFU RNFT2 (11725882_a_at) / Fold change /veh RNFT2 (11725882_a_at) / RFU NR4A2 (11747474_a_at) / Fold change /veh NR4A2 (11747474_a_at) / RFU ABCC12 (11746883_a_at) / Fold change /veh ABCC12 (11746883_a_at) / RFU TMEM136 (11760407_x_at) / Fold change /veh TMEM136 (11760407_x_at) / RFU CLDN22 /// WWC2 (11732394_at) / Fold change /veh CLDN22 /// WWC2 (11732394_at) / RFU HLA-DPB1 (11760878_x_at) / Fold change /veh HLA-DPB1 (11760878_x_at) / RFU SPINT1 (11716480_a_at) / Fold change /veh SPINT1 (11716480_a_at) / RFU GAP43 (11754022_s_at) / Fold change /veh GAP43 (11754022_s_at) / RFU A4GNT (11735810_at) / Fold change /veh A4GNT (11735810_at) / RFU PRB3 (11715151_x_at) / Fold change /veh PRB3 (11715151_x_at) / RFU TUBB4B (11761932_at) / Fold change /veh TUBB4B (11761932_at) / RFU CAPN14 (11732068_a_at) / Fold change /veh CAPN14 (11732068_a_at) / RFU TMCC2 (11721928_a_at) / Fold change /veh TMCC2 (11721928_a_at) / RFU IRGQ (11745062_a_at) / Fold change /veh IRGQ (11745062_a_at) / RFU FAM174B (11720279_a_at) / Fold change /veh FAM174B (11720279_a_at) / RFU TMPRSS4 (11748680_a_at) / Fold change /veh TMPRSS4 (11748680_a_at) / RFU FAM212B (11763350_a_at) / Fold change /veh FAM212B (11763350_a_at) / RFU PLEKHG5 (11743358_a_at) / Fold change /veh PLEKHG5 (11743358_a_at) / RFU ZSCAN30 (11745921_a_at) / Fold change /veh ZSCAN30 (11745921_a_at) / RFU CMKLR1 (11741424_a_at) / Fold change /veh CMKLR1 (11741424_a_at) / RFU LOC101060620 /// MAPK8IP1 (11723275_at) / Fold change /veh LOC101060620 /// MAPK8IP1 (11723275_at) / RFU SPTSSB (11747773_x_at) / Fold change /veh SPTSSB (11747773_x_at) / RFU PRSS12 (11739890_at) / Fold change /veh PRSS12 (11739890_at) / RFU BIN1 (11741810_x_at) / Fold change /veh BIN1 (11741810_x_at) / RFU WNT11 (11732464_a_at) / Fold change /veh WNT11 (11732464_a_at) / RFU C10orf10 (11716521_a_at) / Fold change /veh C10orf10 (11716521_a_at) / RFU C5orf56 (11738089_at) / Fold change /veh C5orf56 (11738089_at) / RFU CYB561 (11721691_x_at) / Fold change /veh CYB561 (11721691_x_at) / RFU ANKRD19P (11752326_a_at) / Fold change /veh ANKRD19P (11752326_a_at) / RFU OR2T12 /// OR2T33 /// OR2T8 (11738714_s_at) / Fold change /veh OR2T12 /// OR2T33 /// OR2T8 (11738714_s_at) / RFU VCAN (11748164_a_at) / Fold change /veh VCAN (11748164_a_at) / RFU JSRP1 (11732532_at) / Fold change /veh JSRP1 (11732532_at) / RFU KRTAP10-11 (11738290_x_at) / Fold change /veh KRTAP10-11 (11738290_x_at) / RFU MYO3A (11730013_a_at) / Fold change /veh MYO3A (11730013_a_at) / RFU EBF3 (11725865_a_at) / Fold change /veh EBF3 (11725865_a_at) / RFU CAMK2N1 (11719241_x_at) / Fold change /veh CAMK2N1 (11719241_x_at) / RFU C5orf56 (11738088_a_at) / Fold change /veh C5orf56 (11738088_a_at) / RFU OLFML3 (11715873_a_at) / Fold change /veh OLFML3 (11715873_a_at) / RFU LOC100653217 /// NTM (11731650_a_at) / Fold change /veh LOC100653217 /// NTM (11731650_a_at) / RFU MAPK11 (11762145_a_at) / Fold change /veh MAPK11 (11762145_a_at) / RFU FIZ1 (11724087_x_at) / Fold change /veh FIZ1 (11724087_x_at) / RFU OASL (11726364_x_at) / Fold change /veh OASL (11726364_x_at) / RFU SOX15 (11748057_x_at) / Fold change /veh SOX15 (11748057_x_at) / RFU CD79A (11719716_a_at) / Fold change /veh CD79A (11719716_a_at) / RFU HIST1H1D (11736915_at) / Fold change /veh HIST1H1D (11736915_at) / RFU CASKIN2 (11723855_a_at) / Fold change /veh CASKIN2 (11723855_a_at) / RFU LOC730098 (11760151_x_at) / Fold change /veh LOC730098 (11760151_x_at) / RFU OR4N2 (11742367_at) / Fold change /veh OR4N2 (11742367_at) / RFU PRRT2 (11749266_a_at) / Fold change /veh PRRT2 (11749266_a_at) / RFU SNX32 (11753110_a_at) / Fold change /veh SNX32 (11753110_a_at) / RFU CDHR5 (11726645_a_at) / Fold change /veh CDHR5 (11726645_a_at) / RFU RCAN1 (11760418_a_at) / Fold change /veh RCAN1 (11760418_a_at) / RFU FAM167A (11723789_a_at) / Fold change /veh FAM167A (11723789_a_at) / RFU FAM26E (11764081_at) / Fold change /veh FAM26E (11764081_at) / RFU ISYNA1 (11749810_s_at) / Fold change /veh ISYNA1 (11749810_s_at) / RFU ACY1 (11761880_at) / Fold change /veh ACY1 (11761880_at) / RFU 11764098_at / Fold change /veh 11764098_at / RFU SAMD14 (11745864_x_at) / Fold change /veh SAMD14 (11745864_x_at) / RFU NPB (11741838_a_at) / Fold change /veh NPB (11741838_a_at) / RFU TMPRSS6 (11731388_a_at) / Fold change /veh TMPRSS6 (11731388_a_at) / RFU KRTAP10-2 (11738614_at) / Fold change /veh KRTAP10-2 (11738614_at) / RFU ARHGAP8 /// PRR5-ARHGAP8 (11727945_x_at) / Fold change /veh ARHGAP8 /// PRR5-ARHGAP8 (11727945_x_at) / RFU KRTAP5-7 /// NADSYN1 (11734609_at) / Fold change /veh KRTAP5-7 /// NADSYN1 (11734609_at) / RFU RASL12 (11751679_a_at) / Fold change /veh RASL12 (11751679_a_at) / RFU CDKN2B (11736163_a_at) / Fold change /veh CDKN2B (11736163_a_at) / RFU PRF1 (11729649_at) / Fold change /veh PRF1 (11729649_at) / RFU, ZNF638 /// ZNF638-IT1 / Fold change vs veh, ZNF638 /// ZNF638-IT1 / RFU, PANK3 / Fold change vs veh, PANK3 / RFU, SH3YL1 / Fold change vs veh, SH3YL1 / RFU, ZEB2 / Fold change vs veh, ZEB2 / RFU, NRIP1 / Fold change vs veh, NRIP1 / RFU, PTTG1IP / Fold change vs veh, PTTG1IP / RFU, CAPN2 / Fold change vs veh, CAPN2 / RFU, MED14 / Fold change vs veh, MED14 / RFU, SNORA58 / Fold change vs veh, SNORA58 / RFU, C1orf63 / Fold change vs veh, C1orf63 / RFU, LRRFIP1 / Fold change vs veh, LRRFIP1 / RFU, NDUFAF7 / Fold change vs veh, NDUFAF7 / RFU, SLC12A2 / Fold change vs veh, SLC12A2 / RFU, IBTK / Fold change vs veh, IBTK / RFU, ESF1 / Fold change vs veh, ESF1 / Fold change vs veh, TMEM50B / RFU, TAOK1 / Fold change vs veh, TAOK1 / RFU, ACBD3 / Fold change vs veh, ACBD3 / RFU, TMA16 / Fold change vs veh, TMA16 / RFU, RWDD3 / Fold change vs veh, RWDD3 / RFU, BCAT1 / Fold change vs veh, BCAT1 / RFU, EDEM3 / Fold change vs veh, EDEM3 / RFU, TMEM33 / Fold change vs veh, TMEM33 / RFU, WDR75 / Fold change vs veh, WDR75 / RFU, AHCTF1 / Fold change vs veh, AHCTF1 / RFU, TFRC / Fold change vs veh, TFRC / RFU, ZDHHC17 / Fold change vs veh, ZDHHC17 / RFU, NOM1 / Fold change vs veh, NOM1 / RFU, ARL8B / Fold change vs veh, ARL8B / RFU, ZBTB11 / Fold change vs veh, ZBTB11 / RFU, TAMM41 / Fold change vs veh, TAMM41 / RFU, KIAA1704 /// LOC100996395 / Fold change vs veh, KIAA1704 /// LOC100996395 / RFU, ING1 / Fold change vs veh, ING1 / RFU, TRMT61B / Fold change vs veh, TRMT61B / RFU, FUBP3 / Fold change vs veh, FUBP3 / RFU, TP53 / Fold change vs veh, TP53 / RFU, TNKS2 / Fold change vs veh, TNKS2 / RFU, ZFP14 / Fold change vs veh, ZFP14 / RFU, ACTR2 / Fold change vs veh, ACTR2 / RFU, PPP3R1 / Fold change vs veh, PPP3R1 / RFU, PIK3R1 / Fold change vs veh, PIK3R1 / RFU, HNRNPA1 / Fold change vs veh, HNRNPA1 / RFU, RNF170 / Fold change vs veh, RNF170 / RFU, ZNF28 / Fold change vs veh, ZNF28 / RFU, RNGTT / Fold change vs veh, RNGTT / RFU, OGT / Fold change vs veh, OGT / RFU, BRD1 / Fold change vs veh, BRD1 / RFU, MARS / Fold change vs veh, MARS / RFU, ZNF655 / Fold change vs veh, ZNF655 / RFU, FAHD1 / Fold change vs veh, FAHD1 / RFU, BDP1 / Fold change vs veh, BDP1 / RFU, LRRCC1 / Fold change vs veh, LRRCC1 / RFU, ARID1A / Fold change vs veh, ARID1A / RFU, ZNF146 / Fold change vs veh, ZNF146 / RFU, ZNF330 / Fold change vs veh, ZNF330 / RFU, GPN3 / Fold change vs veh, GPN3 / RFU, C9orf123 / Fold change vs veh, C9orf123 / RFU, N4BP2L2 / Fold change vs veh, N4BP2L2 / RFU, ARFIP1 / Fold change vs veh, ARFIP1 / RFU, FAM179B / Fold change vs veh, FAM179B / RFU, BCL10 / Fold change vs veh, BCL10 / RFU, UHRF1BP1L / Fold change vs veh, UHRF1BP1L / RFU, BET1 / Fold change vs veh, BET1 / RFU, CNOT2 / Fold change vs veh, CNOT2 / RFU, ZNF268 / Fold change vs veh, ZNF268 / Fold change vs veh, ZNF507 / RFU, DGCR2 / Fold change vs veh, DGCR2 / RFU, WDSUB1 / Fold change vs veh, WDSUB1 / Fold change vs veh, HSP90B1 /// MIR3652 / RFU, ADSS / Fold change vs veh, ADSS / RFU, GK / Fold change vs veh, GK / RFU, ZNF148 / Fold change vs veh, ZNF148 / RFU, TAF9 / Fold change vs veh, TAF9 / RFU, SLC1A5 / Fold change vs veh, SLC1A5 / RFU, SLMO2 / Fold change vs veh, SLMO2 / RFU, ABCC4 / Fold change vs veh, ABCC4 / RFU, LOC101060439 /// RAP1B / Fold change vs veh, LOC101060439 /// RAP1B / RFU, RFX7 / Fold change vs veh, RFX7 / RFU, GTPBP10 / Fold change vs veh, GTPBP10 / RFU, CNEP1R1 / Fold change vs veh, CNEP1R1 / RFU, BIVM-ERCC5 /// ERCC5 / Fold change vs veh, BIVM-ERCC5 /// ERCC5 / RFU, ILF3 / Fold change vs veh, ILF3 / RFU 11762660_at / Fold change /veh 11762660_at / RFU VCAN (11757783_s_at) / Fold change /veh VCAN (11757783_s_at) / RFU DDX43 (11728927_at) / Fold change /veh DDX43 (11728927_at) / RFU KRT8 (11758188_x_at) / Fold change /veh KRT8 (11758188_x_at) / RFU NKD1 (11759106_at) / Fold change /veh NKD1 (11759106_at) / RFU SRD5A1 (11742802_a_at) / Fold change /veh SRD5A1 (11742802_a_at) / RFU TPSAB1 /// TPSB2 (11721975_s_at) / Fold change /veh TPSAB1 /// TPSB2 (11721975_s_at) / RFU GSTM3 (11746129_a_at) / Fold change /veh GSTM3 (11746129_a_at) / RFU IL23R (11737362_x_at) / Fold change /veh IL23R (11737362_x_at) / RFU TMEM51 (11727254_a_at) / Fold change /veh TMEM51 (11727254_a_at) / RFU PIWIL2 (11732686_x_at) / Fold change /veh PIWIL2 (11732686_x_at) / RFU ORM1 (11744905_x_at) / Fold change /veh ORM1 (11744905_x_at) / RFU CCDC152 (11743942_at) / Fold change /veh CCDC152 (11743942_at) / RFU ECM1 (11717891_a_at) / Fold change /veh ECM1 (11717891_a_at) / RFU IL23R (11748794_a_at) / Fold change /veh IL23R (11748794_a_at) / RFU TNFAIP8L3 (11732012_x_at) / Fold change /veh TNFAIP8L3 (11732012_x_at) / RFU MBOAT4 (11741988_at) / Fold change /veh MBOAT4 (11741988_at) / RFU 11764193_at / Fold change /veh 11764193_at / RFU TMEM53 (11763286_at) / Fold change /veh TMEM53 (11763286_at) / RFU MAGEB2 (11727129_at) / Fold change /veh MAGEB2 (11727129_at) / RFU TMEM200A (11744735_a_at) / Fold change /veh TMEM200A (11744735_a_at) / RFU CCDC152 (11751479_a_at) / Fold change /veh CCDC152 (11751479_a_at) / RFU FAM211A (11726209_a_at) / Fold change /veh FAM211A (11726209_a_at) / RFU RGS16 (11746705_a_at) / Fold change /veh RGS16 (11746705_a_at) / RFU VCAN (11755009_s_at) / Fold change /veh VCAN (11755009_s_at) / RFU RHOB (11743442_s_at) / Fold change /veh RHOB (11743442_s_at) / RFU RGS16 (11720943_a_at) / Fold change /veh RGS16 (11720943_a_at) / RFU RGS16 (11720944_at) / Fold change /veh RGS16 (11720944_at) / RFU, VPS4B / Fold change vs veh, VPS4B / RFU, CREB1 / Fold change vs veh, CREB1 / RFU, DNAJC13 / Fold change vs veh, DNAJC13 / RFU, GNAQ / Fold change vs veh, GNAQ / RFU, CDK5R1 / Fold change vs veh, CDK5R1 / RFU, ZRANB3 / Fold change vs veh, ZRANB3 / RFU, CUL4A / Fold change vs veh, CUL4A / RFU, CCNY / Fold change vs veh, CCNY / RFU, UFL1 / Fold change vs veh, UFL1 / RFU, COG3 / Fold change vs veh, COG3 / RFU, DIAPH2 / Fold change vs veh, DIAPH2 / RFU, SKA2 / Fold change vs veh, SKA2 / RFU, AFF3 / Fold change vs veh, AFF3 / RFU, LMF1 / Fold change vs veh, LMF1 / RFU, IPO11 / Fold change vs veh, IPO11 / RFU, DFFB / Fold change vs veh, DFFB / RFU, FOXP1 / Fold change vs veh, FOXP1 / RFU, CARD8 / Fold change vs veh, CARD8 / RFU, STRN3 / Fold change vs veh, STRN3 / RFU, ADK / Fold change vs veh, ADK / RFU, RASSF2 / Fold change vs veh, RASSF2 / RFU, WIPF1 / Fold change vs veh, WIPF1 / RFU, LARP1B / Fold change vs veh, LARP1B / RFU, RASA1 / Fold change vs veh, RASA1 / RFU, RB1 / Fold change vs veh, RB1 / RFU, PPFIA1 / Fold change vs veh, PPFIA1 / RFU, MAT2A / Fold change vs veh, MAT2A / RFU, CCT5 / Fold change vs veh, CCT5 / RFU, WDR92 / Fold change vs veh, WDR92 / RFU, CUX1 / Fold change vs veh, CUX1 / RFU, TTC7A / Fold change vs veh, TTC7A / RFU, TMEM135 / Fold change vs veh, TMEM135 / RFU, DEPTOR / Fold change vs veh, DEPTOR / RFU, CPM / Fold change vs veh, CPM / RFU, DNAJB6 / Fold change vs veh, DNAJB6 / RFU, CACNA2D3 / Fold change vs veh, CACNA2D3 / RFU, DTX4 / Fold change vs veh, DTX4 / RFU, TFCP2 / Fold change vs veh, TFCP2 / RFU, GMCL1 /// GMCL1P1 / Fold change vs veh, GMCL1 /// GMCL1P1 / RFU, AEBP2 / Fold change vs veh, AEBP2 / RFU, SNHG1 /// SNORD22 /// SNORD25 /// SNORD26 /// SNORD27 /// SNORD28 /// SNORD29 /// SNORD31 / Fold change vs veh, SNHG1 /// SNORD22 /// SNORD25 /// SNORD26 /// SNORD27 /// SNORD28 /// SNORD29 /// SNORD31 / Fold change (Aza/veh), C12orf56 (ProbeSet 11735607_a_at) / Fold change (ACY-1035/veh), C12orf56 (ProbeSet 11735607_a_at) / Fold change (Aza/veh), FGFR1OP (ProbeSet 11751329_s_at) / Fold change (ACY-1035/veh), FGFR1OP (ProbeSet 11751329_s_at) / Fold change (Aza/veh), VPS36 (ProbeSet 11739960_a_at) / Fold change (ACY-1035/veh), VPS36 (ProbeSet 11739960_a_at) / RFU SYPL1 (11715823_x_at) / Fold change /veh SYPL1 (11715823_x_at) / RFU IGFBP7 (11715501_s_at) / Fold change /veh IGFBP7 (11715501_s_at) / RFU REEP3 (11722064_at) / Fold change /veh REEP3 (11722064_at) / RFU IGLL1 (11728026_x_at) / Fold change /veh IGLL1 (11728026_x_at): dose or concentration left out as unconfirmed
Details: ProbeSet 11755159_a_at; LIST D

Structure (SMILES): Nc1ccc(-c2cccs2)cc1NC(=O)c1ccc2c(c1)cc(C1CC1)n2CCN1CCOCC1 [ACY-1035]
- Fold change vs veh, COG3: 0.96
